The values that follow come from ChEMBL document CHEMBL1201862, “PubChem BioAssay data set” (2004).

Each structure is given as a SMILES string.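 1) Cells in 96-well plates. 2) Compound, 48 h, 5 concentrations. 3) Linear interpolation between surrounding doses. 4) Unreached endpoint = highest concentration. GI50 marks 50% less growth.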 The source made the active and inactive calls. Cut-off read from the data, not from the text of the source: active = GI50 up to about 1.1 µM and inactive = higher.

What all share (experiment): inhibition of tumour cell growth, NCI panel, 48 h
Test [1] deals with SK-OV-3.
The subject of test [2] is COLO 205.
Test [3] has as its system K562.
Test [4] deals with SF-539.
Test [5] concerns OVCAR-8.
The test system of test [6] is OVCAR-4.
For test [7], the system named is SK-MEL-2.
Test [8] relates to CAKI-1.
In test [9] the test system is RPMI-8226.
Test [10] deals with KM12.
The subject of test [11] is U-251.
Test [12] concerns UO-31.
The subject of test [13] is 786-0.
The test system of test [14] is UACC-62.
The test system of test [15] is OVCAR-3.
The test system of test [16] is NCI-H23.
Test [17] has as its system HOP-62.
Test [18] deals with HCT-116.
Test [19] concerns MCF7.
The subject of test [20] is MDA-MB-231.

On to `COc1ccc(C(=O)C(CO)Oc2ccccc2OC)cc1OC` (stereo unspecified), for which the GI50 in [1], in test [2], in test [3], in [4], in test [5] and in test [6] was > 100 µM (inactive) throughout. Moreover, the GI50 in [7], in [8], in test [9], in test [10], in [11] and in test [12] was > 100 µM (inactive) in each case. The GI50 in test [13], in [14], in test [15], in [16], in [17] and in [18] was > 100 µM (inactive) throughout.
Regarding `O=Cc1c(O)c(C(=O)Nc2ccc3[nH]c(=O)[nH]c3c2)cc2ccccc12`, the GI50 in test [1], in [2], in test [3], in [4], in test [5] and in test [6] was > 100 µM (inactive) in each case. Besides, the GI50 in test [7], in test [8], in test [9], in test [10], in [11] and in test [12] was > 100 µM (inactive) throughout. The GI50 in [13], in [14], in test [15], in [16], in test [17] and in test [18] was > 100 µM (inactive) each time.
Consider `O=C(O)c1nc2ccccc2nc1Nc1ccc(F)cc1`, for which the GI50 in [2] was 29.5 µM (inactive); in test [3] it was 32.1 µM (inactive); in test [4], 23.5 µM (inactive); in test [5], 38.9 µM (inactive); in [6], 41.8 µM (inactive); in test [7], 26.9 µM (inactive). Further, the GI50 is 20.9 µM (inactive) in test [8]; 23.1 µM (inactive) in [9]; 41.6 µM (inactive) in test [10]; 29.9 µM (inactive) in [19]; 37.7 µM (inactive) in test [11]; 43 µM (inactive) in test [12]. The GI50 in [13] was 40.9 µM (inactive); in test [14] it was 27.2 µM (inactive); in test [15], 15.3 µM (inactive); in [16], 34 µM (inactive); in test [17], 30.4 µM (inactive); in test [18] it was 30.8 µM (inactive).
Regarding `COc1cc(C2SC(=N)Nc3c2c(C)nn3C(=O)Cc2ccccc2)ccc1O` (stereo unspecified), the GI50 in test [1], in test [2], in test [3], in test [4], in test [5] and in test [8] was > 100 µM (inactive) in each case. Besides, the GI50 in test [9], in test [10], in [19], in test [12], in [13] and in [14] was > 100 µM (inactive) each time. Besides, the GI50 in test [20], in test [16], in test [17] and in test [18] was > 100 µM (inactive) in each case.
As for `c1ccc(/N=C(\N2CCCC2)N(CCN2CCCC2)c2ccccc2)cc1`, the GI50 in test [1] was 63.4 µM (inactive); in [2], 7.33 µM (inactive); in [3] it was 3.8 µM (inactive); in test [5], 24.4 µM (inactive); in test [6], 32.1 µM (inactive); in test [7] it was 64.9 µM (inactive). In addition, the GI50 in test [8] was 53.5 µM (inactive); in test [9], 47.8 µM (inactive); in [10], 11 µM (inactive); in [19] it was 13.5 µM (inactive); in test [11], 29.9 µM (inactive); in test [12], 14.8 µM (inactive). Also, the GI50 was 43.2 µM (inactive) in test [13]; 16.6 µM (inactive) in [14]; 20 µM (inactive) in test [15]; 11.1 µM (inactive) in [16]; 9.79 µM (inactive) in test [17]; 1.83 µM (inactive) in test [18].
Turning to `Cc1cc(N(CCC#N)CCC#N)ccc1/C=C(\N=[N+]=[N-])C(=O)NC(=O)COc1ccccc1`, the GI50 in test [1] was > 100 µM (inactive); in test [2] it was > 100 µM (inactive); in [3], > 100 µM (inactive); in test [4], > 67.1 µM (inactive); in test [5], > 81.1 µM (inactive); in [6] it was > 100 µM (inactive). For the same compound, the GI50 in test [7] was > 73.3 µM (inactive); in [8] it was > 100 µM (inactive); in test [9], > 100 µM (inactive); in test [10], > 100 µM (inactive); in test [11] it was > 67.8 µM (inactive); in test [12], > 100 µM (inactive). For the same compound, the GI50 in test [13], in test [14], in test [15], in test [16], in test [17] and in test [18] was > 100 µM (inactive) in each case.
Regarding `O=C(Nc1ccc(Cl)cc1)c1cc([N+](=O)[O-])ccc1O`, the GI50 in [1] is 4.69 µM (inactive); in test [2], 3.27 µM (inactive); in [3], 2.67 µM (inactive); in test [4] it was 3.34 µM (inactive); in test [5], 4.33 µM (inactive); in [6], 4.52 µM (inactive). The GI50 in test [7] was 2.61 µM (inactive); in test [8], 4.02 µM (inactive); in [9] it was 2.33 µM (inactive); in [10] it was 4.68 µM (inactive); in test [11], 3.27 µM (inactive); in test [12] it was 2.6 µM (inactive). Also, the GI50 in [13] is 3.76 µM (inactive); in [14] it was 2.29 µM (inactive); in test [15], 2.67 µM (inactive); in test [16], 2.64 µM (inactive); in test [17] it was 2.49 µM (inactive); in test [18] it was 3.37 µM (inactive).
Turning to `C/C=N\n1c(C)n[nH]c1=O`, the GI50 in [2], in test [3], in test [4], in [5], in test [6] and in [7] was > 100 µM (inactive) each time. Further, the GI50 in [8], in test [9], in [10], in [19], in test [11] and in test [12] was > 100 µM (inactive) each time. Also, the GI50 in test [13], in test [14], in test [15], in test [16], in test [17] and in [18] was > 100 µM (inactive) throughout.
Take `O=C(Nc1ccccc1)c1cc2ccccc2c(/N=N/c2ccc([N+](=O)[O-])cc2)c1O`: the GI50 in test [1] was 81.8 µM (inactive); in test [2], > 100 µM (inactive); in test [3], 35.6 µM (inactive); in [5] it was > 100 µM (inactive); in [6], > 100 µM (inactive); in test [7], 32.8 µM (inactive). In addition, the GI50 in test [8] is > 100 µM (inactive); in test [9] it was 25.5 µM (inactive); in test [10] it was > 100 µM (inactive); in test [11], 31.4 µM (inactive); in test [12], > 100 µM (inactive); in test [13] it was 86.3 µM (inactive). For the same compound, the GI50 in [14] is 65.2 µM (inactive); in [15], 70.1 µM (inactive); in [20] it was 71.9 µM (inactive); in [16], 33.2 µM (inactive); in test [17] it was 30.6 µM (inactive); in test [18], > 100 µM (inactive).
On to `CCCCn1c(-c2ccccc2)cs/c1=N\NC(=O)Cn1c(C)nc2ccccc21`, for which the GI50 was > 100 µM (inactive) in [1]; 17.1 µM (inactive) in test [2]; 14.5 µM (inactive) in [3]; > 100 µM (inactive) in [4]; > 100 µM (inactive) in test [5]; 6.12 µM (inactive) in test [6]. Also, the GI50 was > 100 µM (inactive) in [7]; 62.5 µM (inactive) in test [8]; 14.7 µM (inactive) in test [9]; 70.8 µM (inactive) in test [10]; 96.2 µM (inactive) in test [11]; 55.6 µM (inactive) in [12]. Further, the GI50 in [13] is > 100 µM (inactive); in test [14], 58.6 µM (inactive); in [15] it was 40.6 µM (inactive); in [16] it was 8.75 µM (inactive); in [17], > 100 µM (inactive); in [18], 97.3 µM (inactive).
As to `CCOC(=O)c1ccc(N[C@@H]2c3cc4c(cc3C(C3=CC(=O)C(=O)C(OC)=C3)[C@H]3C(=O)OCC32)OCO4)cc1` (stereo partly specified), the GI50 in [1] was 2.26 µM (inactive); in [2], 3.21 µM (inactive); in test [3] it was 2.67 µM (inactive); in test [4], 1.29 µM (inactive); in test [5], 2.86 µM (inactive); in [6] it was 24.2 µM (inactive). The GI50 was 2.82 µM (inactive) in test [7]; 0.634 µM (active) in test [8]; 1.06 µM (active) in test [9]; 3.92 µM (inactive) in [10]; 0.995 µM (active) in [11]; 2.52 µM (inactive) in test [12]. For the same compound, the GI50 in test [13] was 1.6 µM (inactive); in test [14], 1.69 µM (inactive); in test [15], 8.47 µM (inactive); in [16] it was 1.54 µM (inactive); in test [17], 0.512 µM (active); in test [18], 2.86 µM (inactive).
